From patent US20250361264A1, “PROTEIN MODIFYING REAGENT” (CANON KABUSHIKI KAISHA, priority 2023, published 2025) come the findings set out here.

One experiment concerns the target T1, silk fibroin powder (Bombyx mori, UniProt P05790).
T1 construct: purchased Sigma-Aldrich
Kind of experiment: Evaluation of adsorptivity of groups containing aromatic rings to proteins having β-sheet structures. The class given is binding. The conditions noted are these: for Adsorption rate to fibroin (%): 0.02 mM, 0.15 mL methanol solution on 10 mg silk fibroin powder, dried, 0.15 mL water, 5 minutes stirring, supernatant absorbance; for Adsorptivity: class of adsorption rate to fibroin. How it is done:
After distillation of methanol by air-drying, 0.15 mL of water was added. After stirring for 5 minutes, the supernatant was collected. The adsorption rate of groups containing aromatic rings to fibroin was calculated from the concentration of groups containing aromatic rings in the collected supernatant liquid and the change in concentration by absorbance measurement, the adsorptivity of groups containing aromatic rings to proteins having β-sheet structures was evaluated using the following criteria.
“Evaluation A” and “Evaluation B” indicate the level at which groups containing aromatic rings adsorb strongly to proteins having a β-sheet structure, and “Evaluation C” indicates the low adsorptivity of groups containing aromatic rings.
• A: 90% or more • B: 60% or more but less than 90% • C: Less than 60%

A further experiment addresses T2, fibroin sheet (Bombyx mori, UniProt P05790).
T2 construct: purchased Sigma-Aldrich
Nature of the experiment: Color intensity of modified fibroin sheet after peroxidase DAB staining. It counts as biochemical. The conditions noted are these: fibroin sheet adsorbed from 0.3 mg/mL solution; DAB staining solution 1.5 μL, 5 minutes; ImageJ; average of five sheets. How it is done: To 0.18 g of silk fibroin powder (manufactured by Sigma-Aldrich), 3.82 g of hexafluoro--2 propanol (HFIP) was added, and the mixture was stirred at room temperature using a mix rotor. Thereafter, filtration was performed using a filter (Millex-AP, Millipore) to obtain a 4.5 wt % fibroin solution. Fibroin solution (0.1 mL) was used to prepare and collect a sheet of fibroin fibers on an aluminum dish using an electrospinning device (NANON-03, MECC).
After methanol was added to the collected sheet, methanol was removed and dried overnight. The measurement of the weight of the fibroin sheet cut into 20 mm×40 mm size confirmed that it was 1.25 μg/mm^2 fibroin sheet. […]
To the fibroin sheet modified with Compound 1 obtained in Manufacturing Example 2, a staining solution (1.5 μL) of the peroxidase staining DAB kit (Brown Stain) (manufactured by Nacalai Tesque) was added dropwise and allowed to stand for 5 minutes in a wet box. […] After drying the sheet, the sheet was read by a scanner to acquire image data. The obtained image data were measured for color intensity using ImageJ software. Five sheets were made, and the same evaluation was carried out, and the average value of the color intensity (Color Intensity, hereinafter CI value) was calculated. The calculated CI value was 59.8.

With Thioflavin T acid [reference compound], at silk fibroin powder, the “Adsorption rate to fibroin (%)” value worked out at 91% and the Adsorptivity entry is recorded as “A (90% or more)”.
As to “HRP: horseradish peroxidase (manufactured by Sigma-Aldrich), unmodified comparison”, the “CI value (average color intensity)” value with fibroin sheet was determined as 39.5.
Turning to `O=C(O)CCNc1ccc(-c2nc3ccccc3s2)cc1` [Compound 2], on silk fibroin powder, the “Adsorption rate to fibroin (%)” value turned out to be 79% and the Adsorptivity entry is listed as “B (60% or more but less than 90%)”.
For `O=C(O)CCOc1ccccc1-c1nc2ccccc2s1` [Compound 4] the same measures were 71% and “B (60% or more but less than 90%)”.
“Compound 1: Thioflavin T acid bound to horseradish peroxidase (HRP); one Thioflavin T acid molecule per HRP molecule”: in the experiment with fibroin sheet, the “CI value (average color intensity)” value turned out to be 59.8.
